Assay results published in ChEMBL document CHEMBL1152321, “Recent advances in the chemistry and biology of new generation taxoids” (J Nat Prod, 2009).

Assays:
MCF7 [1] = assay: Resistance factor, ratio of IC50 for human MCF7 cells expressing P-glycoprotein to IC50 for P-glycoprotein deficient wild type human MCF7 cells; assay type: functional
MCF7 [2] = assay: Cytotoxicity against human MCF7 cells expressing P-glycoprotein after 72 hrs; assay type: functional, cell-based; conditions: MCF7, 72 h
HT-29 = assay: Cytotoxicity against human HT-29 cells after 72 hrs; assay type: functional, cell-based; conditions: HT-29, 72 h
MCF7 [3] = assay: Cytotoxicity against P-glycoprotein deficient wild type human MCF7 cells after 72 hrs; assay type: functional, cell-based; conditions: MCF7, 72 h
PANC-1 = assay: Cytotoxicity against human PANC1 cells expressing mdr1, mrp1, mrp2, lrp genes after 72 hrs; assay type: functional, cell-based; conditions: PANC-1, 72 h
A2780 [4] = assay: Cytotoxicity against human wild type A2780 cells after 72 hrs; assay type: functional, cell-based; conditions: A2780, 72 h
[5] = Cytotoxicity against human LCC-6 cells expressing P-glycoprotein after 72 hrs; assay type: functional, cell-based; conditions: LCC-6, 72 h
[6] = Cytotoxicity against multidrug-resistant human NCI/ADR cells after 72 hrs; assay type: functional, cell-based; conditions: NCI/ADR-RES
[7] = Cytotoxicity against P-glycoprotein deficient wild type human LCC-6 cells after 72 hrs; assay type: functional, cell-based; conditions: LCC-6, 72 h
MCF7 [8] = assay: Resistance factor, ratio of IC50 for P-glycoprotein deficient wild type human MCF7 cells to IC50 for multidrug-resistant human NCI/ADR cells; assay type: functional
[9] = Resistance factor, ratio of IC50 for human LCC-6 cells expressing P-glycoprotein to IC50 for P-glycoprotein deficient wild type human LCC-6 cells; assay type: functional; design: reference not given here
[10] = Cytotoxicity against human paclitaxel and cyclosporine-resistant A2780TC1 cells overexpressing class 3 beta-tubulin after 72 hrs; assay type: functional, cell-based; conditions: A2780TC1, 72 h
[11] = Cytotoxicity against human paclitaxel and cyclosporine-resistant A2780TC3 cells overexpressing class 3 beta-tubulin after 72 hrs; assay type: functional, cell-based; conditions: A2780TC3, 72 h
A2780 [12] = assay: Cytotoxicity against human topotecan-resistant A2780 cells after 72 hrs; assay type: functional, cell-based; conditions: A2780, 72 h
A2780 [13] = assay: Cytotoxicity against human cisplatin-resistant A2780 cells after 72 hrs; assay type: functional, cell-based; conditions: A2780, 72 h
[14] = Cytotoxicity against human A2780/ADR cells after 72 hrs; assay type: functional, cell-based

Row | SMILES | IC50 (MCF7 [3]) | IC50 [7] | Ratio (MCF7 [8]) | Ratio [9] | also measured
1 | CC(=O)O[C@@]12CO[C@@H]1C[C@H](O)[C@@]1(C)C(=O)[C@H](OC(=O)N(C)C)C3=C(C)[C@@H](OC(=O)[C@H](O)[C@H](C=C(F)F)NC(=O)OC(C)(C)C)C[C@@](O)([C@@H](OC(=O)c4ccccc4)[C@H]21)C3(C)C | 0.13 nM | – | – | – | Ratio (MCF7 [1]): 33; IC50 (MCF7 [2]): 4.3 nM; IC50 (HT-29): 0.46 nM; IC50 (PANC-1): 1.58 nM
2 | CC(=O)O[C@H]1C(=O)[C@@]2(C)[C@H]([C@H](OC(=O)c3ccccc3)[C@]3(O)[C@H]4OC/C=C\OCc5ccccc5C(=O)N[C@@H](c5ccccc5)[C@@H](O)C(=O)O[C@@H]4C(C)=C1C3(C)C)[C@]1(OC(C)=O)CO[C@@H]1C[C@@H]2O | 196 nM | 348 nM | – | – | IC50 (A2780 [4]): 198 nM; IC50 [5]: 1920 nM; IC50 (HT-29): 62 nM; IC50 [6]: 1140 nM
3 | CCC(=O)O[C@H]1C(=O)[C@@]2(C)[C@H]([C@H](OC(=O)c3ccccc3)[C@]3(O)C[C@H](OC(=O)[C@H](O)[C@H](C=C(C)C)NC(=O)C4CCC4)C(C)=C1C3(C)C)[C@]1(OC(C)=O)CO[C@@H]1C[C@@H]2O | – | 1.3 nM | 34 | 26 | –
4 | CCC(=O)O[C@H]1C(=O)[C@@]2(C)[C@H]([C@H](OC(=O)c3ccccc3)[C@]3(O)C[C@H](OC(=O)[C@H](O)[C@H](C=C(C)C)NC(=O)C4=CCCCC4)C(C)=C1C3(C)C)[C@]1(OC(C)=O)CO[C@@H]1C[C@@H]2O | – | 1.2 nM | 13 | 9.2 | –
5 | CCC(=O)O[C@H]1C(=O)[C@@]2(C)[C@H]([C@H](OC(=O)c3ccccc3)[C@]3(O)C[C@H](OC(=O)[C@H](O)[C@H](C=C(C)C)NC(=O)C4CCCC4)C(C)=C1C3(C)C)[C@]1(OC(C)=O)CO[C@@H]1C[C@@H]2O | – | 1.1 nM | 20 | 17 | –
6 | CCC(=O)O[C@H]1C(=O)[C@@]2(C)[C@H]([C@H](OC(=O)c3ccccc3)[C@]3(O)C[C@H](OC(=O)[C@H](O)[C@H](CC(C)C)NC(=O)OC4CCCC4)C(C)=C1C3(C)C)[C@]1(OC(C)=O)CO[C@@H]1C[C@@H]2O | – | 2.6 nM | 6.8 | 5.4 | –
7 | CCC(=O)O[C@H]1C(=O)[C@@]2(C)[C@H]([C@H](OC(=O)c3cccc(OC)c3)[C@]3(O)C[C@H](OC(=O)[C@H](O)[C@H](C=C(C)C)NC(=O)C4CC4)C(C)=C1C3(C)C)[C@]1(OC(C)=O)CO[C@@H]1C[C@@H]2O | – | 1.1 nM | 15.6 | 16 | –
8 | C=CCC[C@H](NC(=O)OC(C)(C)C)[C@@H](O)C(=O)O[C@H]1C[C@@]2(O)[C@@H](OC(=O)c3cccc(OC)c3)[C@@H]3[C@]4(OC(C)=O)CO[C@@H]4C[C@H](O)[C@@]3(C)C(=O)[C@H](OC(=O)CC)C(=C1C)C2(C)C | – | 0.9 nM | 3.9 | 6 | –
9 | CC(=O)O[C@@]1([C@@H]2/C(C)=C(/O)C(=O)C3=C(C)[C@@H](OC(=O)[C@H](O)[C@H](C=C(C)C)NC(=O)OC(C)(C)C)C[C@@](O)([C@H]2OC(=O)c2cccc(F)c2)C3(C)C)CO[C@@H]1CCO | – | – | – | – | IC50 [10]: 4.45 µM; IC50 [11]: 745 nM; IC50 (A2780 [4]): 6.1 nM; IC50 (A2780 [12]): 6.9 nM; IC50 (A2780 [13]): 4.9 nM; IC50 [14]: 2220 nM
10 | COC(=O)O[C@H]1C(=O)[C@@]2(C)[C@H]([C@H](OC(=O)c3cccc(OC)c3)[C@]3(O)C[C@H](OC(=O)[C@H](O)[C@H](C=C(C)C)NC(=O)OC(C)(C)C)C(C)=C1C3(C)C)[C@]1(OC(C)=O)CO[C@@H]1C[C@@H]2O | – | 0.6 nM | 3.5 | 2.7 | –
11 | CCC(=O)O[C@H]1C(=O)[C@@]2(C)[C@H]([C@H](OC(=O)c3cccc(OC)c3)[C@]3(O)C[C@H](OC(=O)[C@H](O)[C@H](CC(C)C)NC(=O)C4CC4)C(C)=C1C3(C)C)[C@]1(OC(C)=O)CO[C@@H]1C[C@@H]2O | – | 0.6 nM | 30 | 22 | –
12 | CCC(=O)O[C@H]1C(=O)[C@@]2(C)[C@H]([C@H](OC(=O)c3cccc(OC)c3)[C@]3(O)C[C@H](OC(=O)[C@H](O)[C@H](C=C(C)C)NC(=O)OC4CCCCC4)C(C)=C1C3(C)C)[C@]1(OC(C)=O)CO[C@@H]1C[C@@H]2O | – | 1.23 nM | 9.7 | 12 | –
13 | CCC(=O)O[C@H]1C(=O)[C@@]2(C)[C@H]([C@H](OC(=O)c3ccccc3)[C@]3(O)C[C@H](OC(=O)[C@H](O)[C@H](C=C(F)F)NC(=O)OC(C)(C)C)C(C)=C1C3(C)C)[C@]1(OC(C)=O)CO[C@@H]1C[C@@H]2O | 0.12 nM | – | – | – | Ratio (MCF7 [1]): 10; IC50 (MCF7 [2]): 1.2 nM; IC50 (HT-29): 0.34 nM; IC50 (PANC-1): 0.65 nM
14 | CCC(=O)O[C@H]1C(=O)[C@@]2(C)[C@H]([C@H](OC(=O)c3cccc(OC)c3)[C@]3(O)C[C@H](OC(=O)[C@H](O)[C@H](C=C(C)C)NC(=O)C4CCC4)C(C)=C1C3(C)C)[C@]1(OC(C)=O)CO[C@@H]1C[C@@H]2O | – | 1.6 nM | 11 | 9.4 | –
15 | CC(=O)O[C@H]1C(=O)[C@@]2(C)[C@H]([C@H](OC(=O)c3ccccc3)[C@]3(O)[C@H]4OC/C=C/OCc5ccccc5C(=O)N[C@@H](c5ccccc5)[C@@H](O)C(=O)O[C@@H]4C(C)=C1C3(C)C)[C@]1(OC(C)=O)CO[C@@H]1C[C@@H]2O | 1650 nM | 2070 nM | – | – | IC50 (A2780 [4]): 1480 nM; IC50 [5]: 2280 nM; IC50 (HT-29): 523 nM; IC50 [6]: 10000 nM
16 | COc1cccc(C(=O)O[C@H]2[C@@H]3[C@]4(OC(C)=O)CO[C@@H]4C[C@H](O)[C@@]3(C)C(=O)[C@H](OC(=O)c3ccccc3OC)C3=C(C)[C@@H](OC(=O)[C@H](O)[C@H](C=C(C)C)NC(=O)OC(C)(C)C)C[C@]2(O)C3(C)C)c1 | – | 0.4 nM | 3 | 2.3 | –
17 | CCC(=O)O[C@H]1C(=O)[C@@]2(C)[C@H]([C@H](OC(=O)c3ccccc3)[C@]3(O)C[C@H](OC(=O)[C@H](O)[C@H](CC(C)C)NC(=O)C4CCCCC4)C(C)=C1C3(C)C)[C@]1(OC(C)=O)CO[C@@H]1C[C@@H]2O | – | 5.8 nM | 13 | 5.5 | –
18 | CC(=O)O[C@H]1C(=O)[C@@]2(C)[C@H]([C@H](OC(=O)c3ccccc3)[C@]3(O)[C@H]4OC/C=C/Cc5ccccc5C(=O)N[C@@H](c5ccccc5)[C@@H](O)C(=O)O[C@@H]4C(C)=C1C3(C)C)[C@]1(OC(C)=O)CO[C@@H]1C[C@@H]2O | 12.3 nM | 12.2 nM | – | – | IC50 (A2780 [4]): 114 nM; IC50 [5]: 300 nM; IC50 (HT-29): 29.2 nM; IC50 [6]: 592 nM
19 | C=CC[C@H](NC(=O)OC(C)(C)C)[C@@H](O)C(=O)O[C@H]1C[C@@]2(O)[C@@H](OC(=O)c3cccc(OC)c3)[C@@H]3[C@]4(OC(C)=O)CO[C@@H]4C[C@H](O)[C@@]3(C)C(=O)[C@H](OC(=O)CC)C(=C1C)C2(C)C | – | 1.2 nM | 10.9 | 7 | –
20 | COc1cccc(C(=O)O[C@H]2[C@@H]3[C@]4(OC(C)=O)CO[C@@H]4C[C@H](O)[C@@]3(C)C(=O)[C@H](OC(=O)OCc3ccccc3)C3=C(C)[C@@H](OC(=O)[C@H](O)[C@H](C=C(C)C)NC(=O)OC(C)(C)C)C[C@]2(O)C3(C)C)c1 | – | 1.2 nM | 7.5 | 1.5 | –
21 | CC(=O)O[C@@]12CO[C@@H]1C[C@H](O)[C@@]1(C)C(=O)[C@H](OC(=O)C3CC3)C3=C(C)[C@@H](OC(=O)[C@H](O)[C@H](C=C(F)F)NC(=O)OC(C)(C)C)C[C@@](O)([C@@H](OC(=O)c4ccccc4)[C@H]21)C3(C)C | 0.12 nM | – | – | – | Ratio (MCF7 [1]): 50; IC50 (MCF7 [2]): 6 nM; IC50 (HT-29): 0.85 nM; IC50 (PANC-1): 5.85 nM
22 | CC(=O)O[C@H]1C(=O)[C@@]2(C)[C@H]([C@H](OC(=O)c3ccccc3)[C@]3(O)[C@H]4OC/C=C/Cc5ccccc5C(=O)N[C@@H](C=C(C)C)[C@@H](O)C(=O)O[C@@H]4C(C)=C1C3(C)C)[C@]1(OC(C)=O)CO[C@@H]1C[C@@H]2O | 398 nM | 130 nM | – | – | IC50 [5]: 618 nM; IC50 [6]: 1000 nM
23 | CCC(=O)O[C@H]1C(=O)[C@@]2(C)[C@H]([C@H](OC(=O)c3cccc(OC)c3)[C@]3(O)C[C@H](OC(=O)[C@H](O)[C@H](CC(C)C)NC(=O)OC4CCCC4)C(C)=C1C3(C)C)[C@]1(OC(C)=O)CO[C@@H]1C[C@@H]2O | – | 0.76 nM | 6.9 | 3.4 | –
24 | CCC(=O)O[C@H]1C(=O)[C@@]2(C)[C@H]([C@H](OC(=O)c3ccccc3)[C@]3(O)C[C@H](OC(=O)[C@H](O)[C@H](C=C(C)C)NC(=O)C4=CCCC4)C(C)=C1C3(C)C)[C@]1(OC(C)=O)CO[C@@H]1C[C@@H]2O | – | 1.2 nM | 15 | 12 | –
25 | CC(=O)O[C@H]1C(=O)[C@@]2(C)[C@H]([C@H](OC(=O)c3ccccc3)[C@]3(O)C[C@H](OC(=O)[C@H](O)[C@H](C=C(F)F)NC(=O)OC(C)(C)C)C(C)=C1C3(C)C)[C@]1(OC(C)=O)CO[C@@H]1C[C@@H]2O | 0.099 nM | – | – | – | Ratio (MCF7 [1]): 9.6; IC50 (MCF7 [2]): 0.95 nM; IC50 (HT-29): 0.41 nM; IC50 (PANC-1): 1.19 nM
26 | CCC(=O)O[C@H]1C(=O)[C@@]2(C)[C@H]([C@H](OC(=O)c3cccc(OC)c3)[C@]3(O)C[C@H](OC(=O)[C@H](O)[C@H](C=C(C)C)NC(=O)C4CCCC4)C(C)=C1C3(C)C)[C@]1(OC(C)=O)CO[C@@H]1C[C@@H]2O | – | 1.1 nM | 32 | 10 | –
